Data as given in ChEMBL document CHEMBL1201862, “PubChem BioAssay data set” (2004).
The source made the active and inactive calls.

Columns and labels:
[1] = molecular target: T1, Alkaline phosphatase, tissue-nonspecific isozyme (Homo sapiens, UniProt P05186)
T1 sequence (P05186 whole entry): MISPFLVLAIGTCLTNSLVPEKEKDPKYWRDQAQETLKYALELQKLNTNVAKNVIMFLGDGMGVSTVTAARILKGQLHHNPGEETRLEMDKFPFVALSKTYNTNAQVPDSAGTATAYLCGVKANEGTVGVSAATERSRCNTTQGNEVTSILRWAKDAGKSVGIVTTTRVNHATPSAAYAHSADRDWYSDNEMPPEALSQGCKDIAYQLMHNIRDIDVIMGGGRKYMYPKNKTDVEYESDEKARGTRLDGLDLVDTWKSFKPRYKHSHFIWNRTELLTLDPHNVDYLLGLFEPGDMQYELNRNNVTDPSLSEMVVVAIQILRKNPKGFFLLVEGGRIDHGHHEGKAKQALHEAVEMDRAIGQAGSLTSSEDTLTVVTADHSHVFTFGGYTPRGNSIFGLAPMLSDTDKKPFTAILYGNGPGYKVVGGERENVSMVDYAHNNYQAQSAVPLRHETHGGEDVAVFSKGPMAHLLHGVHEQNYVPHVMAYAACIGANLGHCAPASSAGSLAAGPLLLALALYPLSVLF

cells [2] = format: functional
[3] = molecular target: T2, Intestinal-type alkaline phosphatase (Homo sapiens, UniProt P09923); experiment: human intestinal alkaline phosphatase activators, dose response, biochemical, luminescence, uHTS hits (AID 463120); format: functional
[4] = molecular target: Intestinal-type alkaline phosphatase (Mus musculus, UniProt P24822); experiment: PubChem AID 488874; format: functional
[5] = molecular target: T1, Alkaline phosphatase, tissue-nonspecific isozyme; experiment: TNAP enzyme activators, dose response, selectivity assay for human IAP activator project, biochemical, TNAP isozyme, human IAP uHTS hits (AID 488886); format: functional;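 further: potency of compounds raising TNAP activity as a selectivity check on IAP activators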
[6] = molecular target: T2, Intestinal-type alkaline phosphatase; experiment: human IAP activators, dose response, biochemical, luminescent, uHTS hits, set 2 (AID 488817); format: functional;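 further: potency of activators that raise enzyme activity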
[7] = Luminescence Cell-Based Dose Response HTS to Identify Inhibitors of 5'UTR Stem-Loop Driven Prion Protein mRNA Translation in H4 Neuroglioblastoma Cells. [Related pubchem assays: 1827 (Project Summary), 1813 (Primary HTS)]; format: functional
INS1 = experiment: beta cell apoptosis inhibitors, cytokine rescue, dose response, luminescence, retest (AID 449756); format: functional, cell-based; conditions: Rattus norvegicus;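 further: cell death triggered by IL-1 beta plus TNF-alpha plus IFN-gamma mixture; protective hits raise ATP signal compared with cytokine alone wells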
cells [8] = format: functional, cell-based
Beta-galactosidase = Beta-galactosidase (Escherichia coli, UniProt Q8VNN2); format: functional
[9] = molecular target: T3, Kappa-type opioid receptor (Homo sapiens, UniProt P41145); format: functional
[10] = Counterscreen for AddAB inhibitors: absorbance-based bacterial cell-based high throughput dose response assay for inhibitors of bacterial viability. [Related pubchem assays (depositor defined):AID435030, AID449728, AID449731, AID488942, AID488955, AID488956]; format: functional
[11] = inhibitors of SNCA 5'UTR-driven reporter translation, confirmation, H4 neuroglioma cells, luminescence (AID 1988); format: functional, cell-based
[12] = molecular target: T3, Kappa-type opioid receptor; format: functional; remark: listed apart in the source
[13] = molecular target: Heat shock protein HSP 90-alpha (Homo sapiens, UniProt P07900); format: functional, organism-based
cells [14] = format: functional, cell-based; remark: listed apart in the source
[15] = inhibitors of intracellular T. cruzi replication, confirmation, NIH3T3 host cells, beta-gal luminescence (AID 2044); format: functional, cell-based;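 further: intracellular parasites grown in NIH/3T3 mouse fibroblasts as host cells; luminescent beta-galactosidase reporter signal from transgenic T. cruzi replicating inside host cells; inhibitors lower the luminescence signal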
[16] = molecular target: T4, Heat shock factor protein 1 (Mus musculus, UniProt P38532); experiment: inhibition of MG132-induced HSE-luciferase signal, confirmation, cell-based, NIH3T3, luminescence, dose retest (AID 2382); format: functional;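 further: NIH3T3 fibroblasts with HSF1-driven luciferase reporter stressed by proteasome inhibitor MG132; luminescence from HSF1-driven luciferase expression after 8 hours of MG132 stress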
T4 sequence (P38532 whole entry): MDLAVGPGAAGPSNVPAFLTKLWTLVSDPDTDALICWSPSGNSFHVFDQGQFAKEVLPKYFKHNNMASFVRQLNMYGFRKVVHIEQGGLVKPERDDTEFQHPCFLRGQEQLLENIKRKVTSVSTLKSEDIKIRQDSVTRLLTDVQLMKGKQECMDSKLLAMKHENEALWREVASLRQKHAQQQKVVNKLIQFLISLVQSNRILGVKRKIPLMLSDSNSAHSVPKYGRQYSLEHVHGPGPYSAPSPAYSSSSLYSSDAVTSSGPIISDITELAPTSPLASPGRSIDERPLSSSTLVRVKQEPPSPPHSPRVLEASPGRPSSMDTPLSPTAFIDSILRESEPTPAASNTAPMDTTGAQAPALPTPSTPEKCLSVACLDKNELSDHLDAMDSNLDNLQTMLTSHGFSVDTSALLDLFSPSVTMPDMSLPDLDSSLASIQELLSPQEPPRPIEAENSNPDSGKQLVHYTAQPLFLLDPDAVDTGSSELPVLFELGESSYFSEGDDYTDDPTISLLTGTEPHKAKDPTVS

HEK293 = experiment: inhibitors of LMP1-driven NF-kB reporter, dose response, cell-based, HEK293, luciferase, cherry-pick (AID 588343); format: functional; conditions: Homo sapiens
[17] = inhibitors of firefly luciferase expression or activity, dose response, H4 neuroglioma cells, luminescence (AID 1990); format: functional, cell-based
[18] = cytotoxicity toward NIH3T3 fibroblasts, dose response, counter-screen, cell-based, ATP luminescence, mouse fibroblasts (AID 2010); format: functional;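 further: cells exposed to compound for about 90 hours before reading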
[19] = cytotoxicity in HEK-293T cells, dose response, cytotoxicity control for TCR NF-kB inhibitor project, luminescence, T-cell screen hits (AID 489026); format: functional, cell-based;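 further: cells exposed to compound about 14 hours before the viability readout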
Exodeoxyribonuclease V = Exodeoxyribonuclease V (Escherichia coli (strain K12), UniProt P04993+P07648+P08394); experiment: E. coli RecBCD inhibitors, dose response, counter-screen for AddAB inhibitor project, absorbance, V66 E. coli, mutant T4 phage (AID 492957); format: functional, cell-based, Escherichia coli str. K-12 substr. MG1655
Nonstructural protein 1 = Nonstructural protein 1 (Influenza A virus, UniProt Q194T2); format: functional, Influenza A virus (A/California/07/2009(H1N1))
Sequence of Nonstructural protein 1 (Q194T2 whole entry): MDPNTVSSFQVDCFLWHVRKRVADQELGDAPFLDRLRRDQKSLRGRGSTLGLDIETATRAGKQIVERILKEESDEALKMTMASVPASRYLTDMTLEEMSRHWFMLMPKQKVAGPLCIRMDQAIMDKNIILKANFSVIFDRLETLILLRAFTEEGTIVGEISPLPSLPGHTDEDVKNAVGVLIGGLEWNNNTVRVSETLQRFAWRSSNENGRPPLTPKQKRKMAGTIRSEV

T2 sequence (P09923 whole entry): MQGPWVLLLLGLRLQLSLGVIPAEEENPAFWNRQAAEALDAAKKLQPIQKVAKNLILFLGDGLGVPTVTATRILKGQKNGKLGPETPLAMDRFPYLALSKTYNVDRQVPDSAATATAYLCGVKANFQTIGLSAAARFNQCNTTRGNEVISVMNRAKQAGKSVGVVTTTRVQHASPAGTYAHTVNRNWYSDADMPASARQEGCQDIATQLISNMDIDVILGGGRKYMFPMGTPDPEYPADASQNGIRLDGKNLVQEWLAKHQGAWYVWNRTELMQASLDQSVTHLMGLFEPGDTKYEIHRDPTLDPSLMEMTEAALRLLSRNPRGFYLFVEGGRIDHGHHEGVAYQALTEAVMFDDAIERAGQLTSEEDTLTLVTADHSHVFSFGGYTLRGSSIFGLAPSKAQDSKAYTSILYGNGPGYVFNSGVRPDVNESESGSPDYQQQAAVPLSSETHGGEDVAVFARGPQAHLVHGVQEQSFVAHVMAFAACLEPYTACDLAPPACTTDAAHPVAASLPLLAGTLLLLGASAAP
T3 sequence (P41145 whole entry): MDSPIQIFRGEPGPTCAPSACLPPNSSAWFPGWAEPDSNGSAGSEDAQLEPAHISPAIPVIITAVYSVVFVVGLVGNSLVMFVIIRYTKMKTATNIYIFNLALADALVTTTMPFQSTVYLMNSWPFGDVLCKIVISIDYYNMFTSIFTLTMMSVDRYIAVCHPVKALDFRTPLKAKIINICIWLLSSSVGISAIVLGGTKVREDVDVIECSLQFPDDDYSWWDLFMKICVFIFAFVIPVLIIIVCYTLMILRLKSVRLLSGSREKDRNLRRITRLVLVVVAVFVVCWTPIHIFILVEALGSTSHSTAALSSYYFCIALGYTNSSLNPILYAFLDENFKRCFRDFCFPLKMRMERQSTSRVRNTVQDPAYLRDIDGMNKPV
Sequence of Beta-galactosidase (Q8VNN2 whole entry): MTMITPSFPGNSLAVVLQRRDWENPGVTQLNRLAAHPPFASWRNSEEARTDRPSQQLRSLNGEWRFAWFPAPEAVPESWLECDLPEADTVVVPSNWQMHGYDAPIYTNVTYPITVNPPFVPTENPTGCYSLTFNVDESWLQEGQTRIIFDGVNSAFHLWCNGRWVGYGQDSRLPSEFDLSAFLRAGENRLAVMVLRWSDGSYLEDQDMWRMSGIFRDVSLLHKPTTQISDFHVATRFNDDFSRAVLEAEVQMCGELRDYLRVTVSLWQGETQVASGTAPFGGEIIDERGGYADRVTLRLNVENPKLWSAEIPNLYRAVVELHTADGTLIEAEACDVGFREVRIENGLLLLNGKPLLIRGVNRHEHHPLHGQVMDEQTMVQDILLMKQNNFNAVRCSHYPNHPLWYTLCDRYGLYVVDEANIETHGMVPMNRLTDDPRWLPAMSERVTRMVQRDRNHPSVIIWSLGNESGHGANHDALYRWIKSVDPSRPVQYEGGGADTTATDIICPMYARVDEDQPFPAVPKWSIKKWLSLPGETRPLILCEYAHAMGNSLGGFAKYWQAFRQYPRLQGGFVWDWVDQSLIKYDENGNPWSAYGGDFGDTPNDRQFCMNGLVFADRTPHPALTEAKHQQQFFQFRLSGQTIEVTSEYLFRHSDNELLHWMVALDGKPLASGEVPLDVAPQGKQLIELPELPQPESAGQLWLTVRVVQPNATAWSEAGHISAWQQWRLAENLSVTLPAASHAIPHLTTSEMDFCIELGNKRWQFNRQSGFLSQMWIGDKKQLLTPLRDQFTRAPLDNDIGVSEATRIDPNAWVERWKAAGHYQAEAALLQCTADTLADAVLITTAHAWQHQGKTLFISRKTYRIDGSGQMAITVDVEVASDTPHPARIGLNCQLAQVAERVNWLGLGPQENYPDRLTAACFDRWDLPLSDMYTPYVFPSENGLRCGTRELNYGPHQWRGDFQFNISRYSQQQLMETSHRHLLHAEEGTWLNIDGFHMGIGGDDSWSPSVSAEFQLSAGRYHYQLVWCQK
Sequence of Exodeoxyribonuclease V (P04993 whole entry): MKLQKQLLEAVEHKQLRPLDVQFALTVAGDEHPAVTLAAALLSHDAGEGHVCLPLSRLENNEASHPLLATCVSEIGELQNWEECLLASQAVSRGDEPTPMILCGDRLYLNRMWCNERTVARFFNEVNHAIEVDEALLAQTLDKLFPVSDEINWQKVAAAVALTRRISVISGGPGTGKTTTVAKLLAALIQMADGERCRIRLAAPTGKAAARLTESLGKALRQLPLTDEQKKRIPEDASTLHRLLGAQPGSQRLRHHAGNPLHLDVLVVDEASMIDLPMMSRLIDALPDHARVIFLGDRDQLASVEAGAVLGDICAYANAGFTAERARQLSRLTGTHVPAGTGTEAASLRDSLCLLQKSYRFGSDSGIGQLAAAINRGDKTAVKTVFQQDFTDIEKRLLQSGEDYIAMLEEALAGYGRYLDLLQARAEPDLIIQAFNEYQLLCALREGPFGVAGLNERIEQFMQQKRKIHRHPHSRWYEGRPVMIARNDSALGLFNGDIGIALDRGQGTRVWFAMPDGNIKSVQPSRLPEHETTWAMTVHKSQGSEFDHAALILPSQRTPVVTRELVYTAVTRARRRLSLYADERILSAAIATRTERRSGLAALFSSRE
Sequence of Exodeoxyribonuclease V (P07648 whole entry): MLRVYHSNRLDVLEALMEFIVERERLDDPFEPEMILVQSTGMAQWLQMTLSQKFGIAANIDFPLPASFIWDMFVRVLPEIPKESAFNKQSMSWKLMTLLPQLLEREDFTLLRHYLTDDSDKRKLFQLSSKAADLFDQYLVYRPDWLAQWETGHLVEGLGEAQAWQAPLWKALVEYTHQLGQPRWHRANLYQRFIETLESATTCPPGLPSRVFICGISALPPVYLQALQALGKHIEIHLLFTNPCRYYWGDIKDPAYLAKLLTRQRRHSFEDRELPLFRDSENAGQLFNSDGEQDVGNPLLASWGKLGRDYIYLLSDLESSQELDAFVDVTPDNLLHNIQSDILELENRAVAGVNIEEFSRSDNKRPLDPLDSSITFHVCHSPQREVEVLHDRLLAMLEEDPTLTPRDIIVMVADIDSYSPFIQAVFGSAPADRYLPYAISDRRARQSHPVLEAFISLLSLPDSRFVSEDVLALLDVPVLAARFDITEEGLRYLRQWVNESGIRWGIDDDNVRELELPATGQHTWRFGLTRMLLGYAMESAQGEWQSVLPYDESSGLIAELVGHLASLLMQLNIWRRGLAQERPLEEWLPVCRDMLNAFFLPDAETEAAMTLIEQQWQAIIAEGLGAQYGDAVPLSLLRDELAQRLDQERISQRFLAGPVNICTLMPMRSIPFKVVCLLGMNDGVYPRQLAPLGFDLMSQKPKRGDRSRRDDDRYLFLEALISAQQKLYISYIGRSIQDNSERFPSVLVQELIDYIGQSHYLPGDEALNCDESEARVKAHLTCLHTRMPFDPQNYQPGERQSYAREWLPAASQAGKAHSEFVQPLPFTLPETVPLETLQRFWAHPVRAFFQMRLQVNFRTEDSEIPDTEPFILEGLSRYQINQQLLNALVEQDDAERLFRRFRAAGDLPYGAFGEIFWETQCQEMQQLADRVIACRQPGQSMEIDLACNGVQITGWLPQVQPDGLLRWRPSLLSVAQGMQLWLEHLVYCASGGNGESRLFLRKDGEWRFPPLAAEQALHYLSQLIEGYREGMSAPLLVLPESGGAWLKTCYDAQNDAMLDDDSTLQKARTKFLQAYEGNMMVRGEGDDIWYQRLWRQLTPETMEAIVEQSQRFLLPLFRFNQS
Sequence of Exodeoxyribonuclease V (P08394 whole entry): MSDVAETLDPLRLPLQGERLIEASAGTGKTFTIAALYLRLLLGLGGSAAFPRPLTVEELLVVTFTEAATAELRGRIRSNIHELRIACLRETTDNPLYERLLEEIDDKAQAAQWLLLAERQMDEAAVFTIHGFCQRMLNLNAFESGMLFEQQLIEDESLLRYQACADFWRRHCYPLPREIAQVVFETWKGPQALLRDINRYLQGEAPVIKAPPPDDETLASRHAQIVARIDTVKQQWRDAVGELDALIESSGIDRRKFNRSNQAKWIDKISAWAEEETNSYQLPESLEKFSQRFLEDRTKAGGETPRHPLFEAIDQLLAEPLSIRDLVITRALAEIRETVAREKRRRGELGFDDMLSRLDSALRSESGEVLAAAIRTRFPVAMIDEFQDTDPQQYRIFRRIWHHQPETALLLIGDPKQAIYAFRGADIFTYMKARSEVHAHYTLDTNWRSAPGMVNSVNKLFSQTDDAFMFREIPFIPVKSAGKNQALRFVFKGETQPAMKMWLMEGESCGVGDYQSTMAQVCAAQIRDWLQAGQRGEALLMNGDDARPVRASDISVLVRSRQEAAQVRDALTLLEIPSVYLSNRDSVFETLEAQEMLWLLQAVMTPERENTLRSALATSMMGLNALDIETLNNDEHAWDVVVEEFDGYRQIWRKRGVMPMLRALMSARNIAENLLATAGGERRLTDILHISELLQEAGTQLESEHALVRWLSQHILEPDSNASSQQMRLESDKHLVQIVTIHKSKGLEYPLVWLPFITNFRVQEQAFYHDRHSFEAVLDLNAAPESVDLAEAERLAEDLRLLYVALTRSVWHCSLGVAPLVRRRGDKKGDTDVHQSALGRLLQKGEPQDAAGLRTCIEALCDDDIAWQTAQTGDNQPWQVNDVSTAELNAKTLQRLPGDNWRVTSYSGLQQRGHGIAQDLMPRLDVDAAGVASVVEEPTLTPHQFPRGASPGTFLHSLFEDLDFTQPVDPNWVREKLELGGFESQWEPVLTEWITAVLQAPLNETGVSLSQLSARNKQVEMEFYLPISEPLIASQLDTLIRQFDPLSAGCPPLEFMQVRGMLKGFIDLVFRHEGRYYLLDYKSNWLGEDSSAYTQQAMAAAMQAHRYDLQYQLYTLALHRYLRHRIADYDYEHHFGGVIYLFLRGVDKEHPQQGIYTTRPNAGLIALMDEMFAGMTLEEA

C=CCN1C(=O)C2(NNc3ccccc3O2)c2ccccc21 (centres undefined)
active: IC50 (cells [2]) 11.7 µM | EC50 [3] 11.3 µM | IC50 [4] 14.2 µM | EC50 [5] 0.636 µM | EC50 [6] 0.514 µM
< 0.195 µM (not active): EC50 [1]

Oc1ccc2ccccc2c1N=Nc1ccccn1
inactive: IC50 [10] > 118 µM | IC50 [19] > 80 µM | IC50 (Exodeoxyribonuclease V) > 118 µM
active: EC50 [7] 2.43 µM | AC50 (INS1) 0.746 µM | EC50 (cells [8]) 24 µM | EC50 (Beta-galactosidase) 25.7 µM | IC50 [9] 5.12 µM | EC50 [11] 2.29 µM | AC50 [13] 2.7 µM | EC50 (cells [14]) 41 µM | EC50 [15] 0.471 µM | EC50 [16] 11.4 µM | AC50 (HEK293) 7.41 µM | EC50 [17] 10.8 µM | EC50 [18] 3.4 µM | IC50 (Nonstructural protein 1) 13.9 µM
> 32 µM: IC50 [12]
